Active and inactive are the calls of the source. No cut-off for these calls is given here.
Legend:
[1] = Cytotoxicity against human Chang cells after 48 hrs by MTT assay; type: cell-based
B16 = experiment: Cytotoxicity against […] B16 cells after 48 hrs by MTT assay; type: functional, cell-based; details: Mus musculus; for IC50: B16, 48 h
[2] = (§1) Cytotoxicity against human BEL-7404 cells after 48 hrs by MTT assay; type: functional, cell-based; details: BEL-7404, 48 h
SK-HEP1 = experiment: Cytotoxicity against human SKHep1 cells after 48 hrs by MTT assay; type: functional, cell-based; details: for IC50: SK-HEP1, 48 h
BEL-7404 = experiment: as §1; type: functional, cell-based

SMILES	Activity [1]	IC50 (B16)	IC50 [2]	IC50 (SK-HEP1)	Activity (SK-HEP1)	Activity (B16)	Activity (BEL-7404)
CCCCCCCCCC[C@H](O)COCCOC[C@@H](O)CCCCCCCCCCCCC1=C[C@H](C)OC1=O	Not Active	0.035 µM	0.041 µM	0.065 µM	–	–	–
CCCCCCCCCC[C@H](O)COCCOC[C@@H](O)CCCCCCCCCCCCC1=CC(C)(C)N(C)C1=O	Not Active	0.478 µM	0.845 µM	0.583 µM	–	–	–
CCCCCCCCCC[C@H](O)COCCOC[C@@H](O)CCCCCCCCCCCCC1=C[C@H](C)NC1=O	Not Active	0.035 µM	2.2 µM	–	inactive	–	–
CCCCCCCCCC[C@H](O)COCCOC[C@@H](O)CCCCCCCCCCCCC1=C[C@H](C)N(C)C1=O	Not Active	0.013 µM	0.234 µM	0.589 µM	–	–	–
CCCCCCCCCC[C@H](O)COCCOC[C@@H](O)CCCCCCCCCCCCC1=CCN(C)C1=O	Not Active	0.168 µM	0.168 µM	0.104 µM	–	–	–
CCCCCCCCCC[C@H](O)COCCOC[C@@H](O)CCCCCCCCCCCCC1=C[C@H](C)N(CCCNC(=O)CCCCCNC(=O)CCCCCNC(=O)OC(C)(C)C)C1=O	Not Active	–	2.5 µM	–	inactive	inactive	–
CCCCCCCCCC[C@H](O)COCCOC[C@@H](O)CCCCCCCCCCCCC1=C[C@H](C)N(CCCNC(=O)CCCCCNC(=S)Nc2ccc3c(c2)C(=O)OC32c3ccc(O)cc3Oc3cc(O)ccc32)C1=O	Not Active	–	–	–	inactive	inactive	inactive
CCCCCCCCCC[C@H](O)COCCOC[C@@H](O)CCCCCCCCCCCCC1=C[C@H](C)N(CCCNC(=O)C(F)(F)F)C1=O	Not Active	0.995 µM	1.35 µM	–	inactive	–	–
CCCCCCCCCC[C@H](O)COCCOC[C@@H](O)CCCCCCCCCCCCC1=C[C@H](C)N(CCCNC(=O)CCCCCNC(=O)OC(C)(C)C)C1=O	Not Active	–	3.2 µM	–	inactive	inactive	–

— ChEMBL document CHEMBL1139936, “Annonaceous acetogenin mimics bearing a terminal lactam and their cytotoxicity against cancer cells” (Bioorg Med Chem Lett, 2007)
